Experiment [1] in a line: Luminescence Cell-Based Dose Retest to Confirm Inhibitors of Cancer Stem Cells. [Related pubchem assays (depositor defined):AID2717, AID2721]. Type of experiment: functional. To be noted: Homo sapiens.
The next experiment in a line: cells. Type of experiment: functional, cell-based.
Experiment [2] has as its system HEK293. Kind of experiment: SAR Analysis of small molecule inhibitors of T-cell specific antigen receptor-induced NF-kB activation in a HEK-293T cell line using a luminescence assay - Set 2. [Related pubchem assays (depositor defined):AID435003, AID435012, AID489026]. The format is functional, cell-based. To be noted: Homo sapiens.
Experiment [3] is described as follows: control 3'UTR Renilla luciferase suppression, dose response, counter-screen for Shn3 inhibitor project, cell-based, Clone20-Shn3RL, cherry-picked (AID 624133). Type of experiment: functional.
Experiment [4] concerns the target T1, Insulin-degrading enzyme (Homo sapiens, UniProt P14735).
T1 sequence (P14735 whole entry): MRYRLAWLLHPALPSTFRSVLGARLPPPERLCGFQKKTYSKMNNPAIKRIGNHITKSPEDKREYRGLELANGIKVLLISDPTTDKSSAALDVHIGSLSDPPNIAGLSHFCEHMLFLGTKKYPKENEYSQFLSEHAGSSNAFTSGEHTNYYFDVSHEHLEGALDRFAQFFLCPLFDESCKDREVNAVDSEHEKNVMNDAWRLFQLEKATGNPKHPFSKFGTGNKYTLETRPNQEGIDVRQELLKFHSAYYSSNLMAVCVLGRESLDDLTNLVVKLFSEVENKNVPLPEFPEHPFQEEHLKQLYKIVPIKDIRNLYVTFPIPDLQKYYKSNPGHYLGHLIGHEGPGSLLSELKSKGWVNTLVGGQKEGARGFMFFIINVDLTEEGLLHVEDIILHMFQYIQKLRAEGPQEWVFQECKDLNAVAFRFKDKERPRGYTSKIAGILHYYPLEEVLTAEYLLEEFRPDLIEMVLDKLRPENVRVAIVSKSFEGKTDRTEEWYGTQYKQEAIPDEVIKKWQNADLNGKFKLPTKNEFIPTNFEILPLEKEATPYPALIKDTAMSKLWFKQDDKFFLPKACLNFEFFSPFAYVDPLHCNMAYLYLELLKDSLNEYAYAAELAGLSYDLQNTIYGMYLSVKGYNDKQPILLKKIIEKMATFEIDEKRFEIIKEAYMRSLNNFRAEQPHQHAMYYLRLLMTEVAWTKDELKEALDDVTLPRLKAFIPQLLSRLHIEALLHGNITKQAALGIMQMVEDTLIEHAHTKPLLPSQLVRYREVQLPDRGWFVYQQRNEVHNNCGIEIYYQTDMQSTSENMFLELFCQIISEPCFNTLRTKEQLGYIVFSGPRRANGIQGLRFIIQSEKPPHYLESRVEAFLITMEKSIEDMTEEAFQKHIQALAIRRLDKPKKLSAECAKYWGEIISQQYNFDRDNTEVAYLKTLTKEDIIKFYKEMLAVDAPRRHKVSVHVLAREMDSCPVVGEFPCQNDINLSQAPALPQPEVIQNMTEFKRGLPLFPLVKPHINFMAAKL
Kind of experiment: activators of recombinant IDE enzyme, dose response, counter-screen for IDE activator project, biochemical, fluorescence polarization (AID 588681).

In experiment [5] the target is T1, Insulin-degrading enzyme. Kind of experiment: activators of endogenous IDE in HEK cells, dose response, cell-based, fluorescence polarization (AID 588439). The format is functional. A general note: In fluorescence polarisation assays a small probe gives low polarisation when free and higher when bound to something large.
Experiment [6] has as its system HEK293. As to the kind of experiment: optical interference in Abeta FP readout, dose response, artefact control for IDE activator project, biochemical, fluorescence polarization (AID 588442). The format is functional, cell-based. The note with it: Homo sapiens.
Experiment [7] in a line: Counterscreen for activators of the function of SWI/SNF related, matrix associated, actin dependent regulator of chromatin, subfamily a, member 2 (SMARCA2, BRM): Luminescence-based cell-based high throughput dose response assay to identify non-selective compounds using the VP16 reporter assay. The format is functional.
The target of a further experiment is T2, Hexokinase-1 (Homo sapiens, UniProt P19367).
T2 sequence (P19367 whole entry): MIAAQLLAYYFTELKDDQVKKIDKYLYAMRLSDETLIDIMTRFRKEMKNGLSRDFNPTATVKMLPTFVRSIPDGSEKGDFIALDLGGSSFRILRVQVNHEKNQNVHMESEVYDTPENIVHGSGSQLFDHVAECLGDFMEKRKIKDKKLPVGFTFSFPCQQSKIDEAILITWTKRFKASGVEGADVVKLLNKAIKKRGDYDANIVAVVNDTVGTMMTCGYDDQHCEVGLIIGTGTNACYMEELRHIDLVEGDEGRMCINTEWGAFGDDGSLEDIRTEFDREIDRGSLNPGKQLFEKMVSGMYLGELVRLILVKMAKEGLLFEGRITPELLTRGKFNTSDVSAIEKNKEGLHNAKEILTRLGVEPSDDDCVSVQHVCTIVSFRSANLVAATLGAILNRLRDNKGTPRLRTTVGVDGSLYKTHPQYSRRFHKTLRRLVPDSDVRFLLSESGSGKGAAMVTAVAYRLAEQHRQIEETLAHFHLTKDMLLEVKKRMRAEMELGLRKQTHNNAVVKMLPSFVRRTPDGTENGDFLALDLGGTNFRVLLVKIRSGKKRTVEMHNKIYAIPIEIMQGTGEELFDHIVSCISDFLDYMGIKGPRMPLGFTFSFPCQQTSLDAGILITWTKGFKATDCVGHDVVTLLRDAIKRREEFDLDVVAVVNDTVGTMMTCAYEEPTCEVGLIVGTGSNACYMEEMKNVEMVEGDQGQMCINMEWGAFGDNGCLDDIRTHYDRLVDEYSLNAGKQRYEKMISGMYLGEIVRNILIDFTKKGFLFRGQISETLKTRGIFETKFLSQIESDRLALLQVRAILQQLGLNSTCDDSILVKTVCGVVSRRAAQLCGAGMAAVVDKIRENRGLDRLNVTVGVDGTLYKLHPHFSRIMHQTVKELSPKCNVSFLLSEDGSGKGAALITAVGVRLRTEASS
Kind of experiment: HK1 enzyme inhibition by HKDC1 hits, SAR follow-up, selectivity assay for HKDC1 inhibitor project, biochemical, set 2, resazurin fluorescence coupled readout (AID 588356). The format is functional. In general terms: Alamar Blue is a resazurin reagent that responds to reducing activity.

The structures appear in SMILES notation. The source made the active and inactive calls.

`CCCCC(=O)NC(c1ccco1)c1cc(Cl)c2cccnc2c1O` (centres undefined): the half-maximal activity concentration (AC50) (in general, the midpoint of the concentration-response curve, whichever way the signal moves) in experiment [1] was 3.33 µM (active).

`CCCCC(=O)NC(c1ccc(Cl)cc1)c1ccc2cccnc2c1O` (centres undefined): the EC50 (as a rule, the concentration needed to bring the measured effect to its halfway point) in “cells” was 3.81 µM (active). The IC50 (as a rule, the concentration needed to halve the response being measured) with HEK293 [2] was 4.57 µM (active). Further, in experiment [3], the half-maximal activity concentration (AC50) was 0.909 µM (active).

Turning to `COc1ccc2noc3c2c1C(=O)c1ccccc1-3`, the EC50 at Insulin-degrading enzyme [4] was > 54.7 µM (inactive); on Insulin-degrading enzyme [5], > 54.7 µM (inactive); in the experiment with HEK293 [6], > 54.7 µM (inactive); in experiment [7] it was > 91.2 µM (inactive).

In the case of `CCc1ccc2c(c1)C(NC(C)=O)C(=O)N2CCN1CCOCC1` (centres undefined), the IC50 on Hexokinase-1 is > 80 µM (inactive).

These data come from ChEMBL document CHEMBL1201862, “PubChem BioAssay data set” (2004).
